Where a name gives a salt, the structure may show the parent alone. Where only a bound is given, the exact number is not on record here.

The IC50 is the concentration needed to halve the response being measured.

Assay [1] concerns Pfeiffer cell line (diffuse large B cell lymphoma). The assay is described as follows: Pfeiffer cell proliferation assay. It is filed as cell-based. Particulars: Homo sapiens, [3H]-thymidine incorporation after 3-4 days plus 12 hours. How it is done:
Pfeiffer Cell Proliferation Assay
Pfeiffer cell line (diffuse large B cell lymphoma) was purchased from ATCC (Manassas, Va.) and maintained in the culture medium recommended (RPMI and 10% FBS). To measure the anti-proliferation activity of the compounds, the Pfeiffer cells were plated with the culture medium (2×10^3 cells/well/per 200 μl) into 96-well ultra-low binding plates (Corning, Corning, N.Y.), in the presence or absence of a concentration range of test compounds. After 3-4 days, [^3H]-thymidine (1 μCi/well) (PerkinElmer, Boston, Mass.) in PBS was then added to the cell culture for an additional 12 hours before the incorporated radioactivity was separated by filtration with water through GF/B filters (Packard Bioscience, Meridenj, Conn.) and measured by liquid scintillation counting with a TopCount (Packard Bioscience).
For orientation: Dividing cells build labelled thymidine or BrdU into new DNA.

Another assay concerns the target T1, PI3Kδ (p110δ/p85α) (Homo sapiens, UniProt O00329).
T1 construct: purchased Millipore (Bedford, Mass.)
Kind of assay: PI3Kδ scintillation proximity assay (assay A). It is filed as biochemical. Particulars: 20 μM PIP2, 20 μM ATP, 4 nM PI3Kδ, 210 minutes, room temperature. Here is the method:
PI3Kδ Scintillation Proximity Assay
[γ-33P] ATP (10 mCi/mL) was purchased from Perkin-Elmer (Waltham, Mass.). […] PI3Kδ (p110δ/p85α) was purchased from Millipore (Bedford, Mass.). ATP, MgCl2, DTT, EDTA, MOPS and CHAPS were purchased from Sigma-Aldrich (St. Louis, Mo.). Wheat Germ Agglutinin (WGA) YSi SPA Scintillation Beads was purchased from GE healthcare life sciences (Piscataway, N.J.).
The kinase reaction was conducted in polystyrene 384-well matrix white plate from Thermo Fisher Scientific in a final volume of 25 μL. Inhibitors were first diluted serially in DMSO and added to the plate wells before the addition of other reaction components. The final concentration of DMSO in the assay was 0.5%. The PI3K assays were carried out at room temperature in 20 mM MOPS, pH 6.7, 10 mM MgCl2, 5 mM DTT and CHAPS 0.03%. Reactions were initiated by the addition of ATP, the final reaction mixture consisted of 20 μM PIP2, 20 μM ATP, 0.2 μCi [γ-^33P] ATP, 4 nM PI3Kδ. Reactions were incubated for 210 minutes and terminated by the addition of 40 μL SPA beads suspended in quench buffer: 150 mM potassium phosphate pH 8.0, 20% glycerol. 25 mM EDTA, 400 μM ATP. The final concentration of SPA beads is 1.0 mg/mL. After the plate sealing, plates were shaken overnight at room temperature and centrifuged at 1800 rpm for 10 minutes, the radioactivity of the product was determined by scintillation counting on Topcount (Perkin-Elmer). IC50 determination was performed by fitting the curve of percent control activity versus the log of the inhibitor concentration using the GraphPad Prism 3.0 software.
Background: Scintillation proximity formats need no separation of bound from free tracer.

T1 sequence (O00329 whole entry): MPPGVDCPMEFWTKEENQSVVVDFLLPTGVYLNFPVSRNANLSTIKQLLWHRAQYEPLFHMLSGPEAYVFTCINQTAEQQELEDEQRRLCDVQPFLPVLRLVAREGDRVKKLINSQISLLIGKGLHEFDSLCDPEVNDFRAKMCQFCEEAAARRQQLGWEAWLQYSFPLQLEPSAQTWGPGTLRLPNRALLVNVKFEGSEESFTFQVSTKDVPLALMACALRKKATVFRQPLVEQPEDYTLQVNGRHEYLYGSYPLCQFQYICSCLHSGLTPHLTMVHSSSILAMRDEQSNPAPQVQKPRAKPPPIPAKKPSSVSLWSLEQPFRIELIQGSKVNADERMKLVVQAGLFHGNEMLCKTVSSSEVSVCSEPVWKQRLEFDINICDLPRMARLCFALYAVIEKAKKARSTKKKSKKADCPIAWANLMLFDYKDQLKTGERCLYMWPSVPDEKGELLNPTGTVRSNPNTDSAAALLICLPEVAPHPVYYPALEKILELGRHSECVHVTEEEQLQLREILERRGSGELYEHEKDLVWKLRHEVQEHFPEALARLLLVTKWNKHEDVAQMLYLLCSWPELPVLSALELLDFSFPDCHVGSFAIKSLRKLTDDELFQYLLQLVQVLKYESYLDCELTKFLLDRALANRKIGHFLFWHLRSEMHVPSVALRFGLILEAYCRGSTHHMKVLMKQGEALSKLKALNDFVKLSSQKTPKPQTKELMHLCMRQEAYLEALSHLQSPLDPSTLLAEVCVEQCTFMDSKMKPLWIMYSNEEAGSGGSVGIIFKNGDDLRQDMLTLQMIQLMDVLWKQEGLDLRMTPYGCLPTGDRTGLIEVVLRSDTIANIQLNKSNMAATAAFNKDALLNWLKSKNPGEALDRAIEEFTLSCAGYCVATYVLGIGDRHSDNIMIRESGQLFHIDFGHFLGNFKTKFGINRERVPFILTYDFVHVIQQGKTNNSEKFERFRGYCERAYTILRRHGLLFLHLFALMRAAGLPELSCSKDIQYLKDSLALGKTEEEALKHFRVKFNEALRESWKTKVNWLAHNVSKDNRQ
T1 sequence (P27986 whole entry partner): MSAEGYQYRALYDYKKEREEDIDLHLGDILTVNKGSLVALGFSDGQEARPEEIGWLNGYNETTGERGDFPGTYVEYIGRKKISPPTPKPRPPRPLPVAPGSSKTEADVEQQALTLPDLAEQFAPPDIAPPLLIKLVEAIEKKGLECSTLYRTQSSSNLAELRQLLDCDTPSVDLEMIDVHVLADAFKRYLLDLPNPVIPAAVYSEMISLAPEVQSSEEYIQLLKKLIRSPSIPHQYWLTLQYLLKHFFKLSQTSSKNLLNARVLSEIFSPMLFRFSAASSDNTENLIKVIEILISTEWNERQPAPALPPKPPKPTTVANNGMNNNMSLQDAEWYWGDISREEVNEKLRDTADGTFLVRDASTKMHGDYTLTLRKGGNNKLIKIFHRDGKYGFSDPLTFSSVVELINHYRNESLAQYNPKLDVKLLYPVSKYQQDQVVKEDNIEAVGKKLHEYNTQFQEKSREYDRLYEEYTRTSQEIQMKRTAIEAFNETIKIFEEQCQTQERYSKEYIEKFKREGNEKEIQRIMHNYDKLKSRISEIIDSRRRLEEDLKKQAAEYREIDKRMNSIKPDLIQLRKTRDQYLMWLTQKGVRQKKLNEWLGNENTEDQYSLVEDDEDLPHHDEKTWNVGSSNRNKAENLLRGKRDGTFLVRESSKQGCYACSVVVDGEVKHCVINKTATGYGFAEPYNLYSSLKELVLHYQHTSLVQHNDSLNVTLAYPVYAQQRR

For the compound `CO[C@@H]1CCN(c2c(C(C)Nc3ncnc4[nH]cnc34)cc(Cl)c3cncn23)C1` (stereo partly drawn) [Example 21, N-(1-{8-Chloro-5-[(3R)-3-methoxypyrrolidin-1-yl]imidazo[1,5-a]pyridin-6-yl}ethyl)-9H-purin-6-amine], the IC50 in assay [1] is at most 100 nM; against PI3Kδ (p110δ/p85α), under 50 nM.
On the same counts, the results for `CC(Nc1ncnc2[nH]cnc12)c1cc(Cl)c2nccn2c1-c1cccc(F)c1` (stereo not shown) [Example 3, N-{1-[8-Chloro-5-(3-fluorophenyl)imidazo[1,2-a]pyridin-6-yl]ethyl}-9H-purin-6-amine] are 1000 to 3000 nM and 200 to 750 nM.
In the same order, the values of `CC(Nc1ncnc2[nH]cnc12)c1cc(Cl)c2cncn2c1N1CCN(CCCC(F)(F)F)CC1` (stereo not shown) [Example 14, N-(1-{8-Chloro-5-[4-(4,4,4-trifluorobutyl)piperazin-1-yl]imidazo[1,5-a]pyridin-6-yl}ethyl)-9H-purin-6-amine] are at most 100 nM and 50 to 200 nM.
For `CC(=O)N1CCN(c2c(C(C)Nc3ncnc4[nH]cnc34)cc(Cl)c3cncn23)CC1` (stereo not shown) [Example 4, N-{1-[5-(4-Acetylpiperazin-1-yl)-8-chloroimidazo[1,5-a]pyridin-6-yl]ethyl}-9H-purin-6-amine], the IC50 in assay [1] is 500 to 1000 nM; against PI3Kδ (p110δ/p85α), under 50 nM.
Turning to `CC(Nc1ncnc2[nH]cnc12)c1cc(Cl)c2cncn2c1N1CCN(C2CCC2)CC1` (stereo not shown) [Example 15, N-{1-[8-Chloro-5-(4-cyclobutylpiperazin-1-yl)imidazo[1,5-a]pyridin-6-yl]ethyl}-9H-purin-6-amine], the IC50 in assay [1] is at most 100 nM; against PI3Kδ (p110δ/p85α) it was 50 to 200 nM.
On the same counts, the results for `COCC(=O)N1CCN(c2c(C(C)Nc3ncnc4[nH]cnc34)cc(Cl)c3cncn23)CC1` (stereo not shown) [Example 8, N-(1-{8-chloro-5-[4-(methoxyacetyl)piperazin-1-yl]imidazo[1,5-a]pyridin-6-yl}ethyl)-9H-purin-6-amine] are over 3000 nM and under 50 nM.
In the same order, the values of `CC(Nc1ncnc2[nH]cnc12)c1cc(Cl)c2cncn2c1N1CCN(CC2CC2)CC1` (stereo not shown) [Example 17, N-(1-{8-Chloro-5-[4-(cyclopropylmethyl)piperazin-1-yl]imidazo[1,5-a]pyridin-6-yl}ethyl)-9H-purin-6-amine] are 100 to 500 nM and 200 to 750 nM.
On the same counts, the results for `CC(Nc1ncnc2[nH]cnc12)c1cc(Cl)c2cncn2c1N1CCNCC1` (stereo not shown) [Example 9, N-[1-(8-Chloro-5-piperazin-1-ylimidazo[1,5-a]pyridin-6-yl)ethyl]-9H-purin-6-amine dihydrochloride] are at most 100 nM and under 50 nM.
